Experimental data from ChEMBL document CHEMBL2429761, “Discovery of ML314, a Brain Penetrant Non-Peptidic β-Arrestin Biased Agonist of the Neurotensin NTR1 Receptor” (ACS Med Chem Lett, 2013).
Converted amounts (≈) assume the structure as drawn.

Key:
Mu-type opioid receptor = Mu-type opioid receptor (Homo sapiens, UniProt P35372); assay: Binding affinity to mu opioid receptor (unknown origin)
Liver microsomes = assay: Metabolic stability in human liver microsomes assessed as compound remaining at 1 to 10 uM after 1 hr by LC-MS/MS analysis; type: ADME, Microsome
[1] = biological target: Neurotensin receptor type 1 (Homo sapiens, UniProt P30989); assay: Agonist activity at NTR1 (unknown origin) expressed in CHO cells assessed as stimulation of calcium flux; type: functional, cell-based
Hepatitis C virus = assay: Antiviral activity against Hepatitis C virus assessed as growth inhibition; type: functional, Hepacivirus hominis
[2] = Effective permeability of the compound at 50 uM after 30 mins at donor pH 7.4 and acceptor pH 7.4 by PAMPA; type: ADME; conditions: pH 7.4, 0.5 h
Liver = assay: Metabolic stability in mouse liver microsomes assessed as compound remaining at 1 to 10 uM after 1 hr by LC-MS/MS analysis; type: ADME, Microsome
[3] = Effective permeability of the compound at 50 uM after 30 mins at donor pH 5 and acceptor pH 7.4 by PAMPA; type: ADME; conditions: pH 5, 0.5 h
[4] = biological target: T1, Alpha-2A adrenergic receptor (Homo sapiens) (UniProt P08913); assay: Binding affinity to adrenergic alpha2A receptor (unknown origin) at 10 uM relative to control
T1 sequence (whole entry): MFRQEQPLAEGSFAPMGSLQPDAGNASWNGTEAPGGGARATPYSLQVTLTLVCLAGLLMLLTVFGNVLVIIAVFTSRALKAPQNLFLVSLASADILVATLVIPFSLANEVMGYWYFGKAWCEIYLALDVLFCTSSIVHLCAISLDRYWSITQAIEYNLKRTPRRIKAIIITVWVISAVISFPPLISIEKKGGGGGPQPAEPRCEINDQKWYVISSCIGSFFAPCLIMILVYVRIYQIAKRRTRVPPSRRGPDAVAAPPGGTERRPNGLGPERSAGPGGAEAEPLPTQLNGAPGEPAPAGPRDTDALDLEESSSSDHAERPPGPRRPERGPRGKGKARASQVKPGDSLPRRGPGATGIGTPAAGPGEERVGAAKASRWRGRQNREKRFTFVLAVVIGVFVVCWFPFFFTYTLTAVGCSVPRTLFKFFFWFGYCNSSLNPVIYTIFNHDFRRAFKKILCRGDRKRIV

Plasma [5] = assay: Metabolic stability in mouse plasma assessed as compound remaining at 1 uM after 3 hrs by LC-MS/MS analysis; type: ADME, cell-free
Plasma [6] = assay: Plasma protein binding in mouse at 1 uM after 4 hrs by LC-MS/MS analysis; type: ADME, cell-free
Plasma [7] = assay: Plasma protein binding in human at 10 uM after 4 hrs by LC-MS/MS analysis; type: ADME, cell-free
Mus musculus = assay: Hepatic clearance in C57BL/6J mouse at 2 mg/kg, iv by LC-MS/MS analysis; type: ADME, organism-based, Liver; design: dose 2 mg/kg, route intravenous; conditions: in vivo
[8] = Drug uptake in C57BL/6J mouse brain at 10 mg/kg, ip after 1 hr by LC-MS/MS analysis; type: ADME, organism-based; design: dose 10 mg/kg, route intraperitoneal; conditions: read-out: Drug uptake
[9] = biological target: T2, Alpha-1D adrenergic receptor (Homo sapiens) (UniProt P25100); assay: Binding affinity to adrenergic alpha1D receptor (unknown origin) at 10 uM relative to control
T2 sequence (whole entry): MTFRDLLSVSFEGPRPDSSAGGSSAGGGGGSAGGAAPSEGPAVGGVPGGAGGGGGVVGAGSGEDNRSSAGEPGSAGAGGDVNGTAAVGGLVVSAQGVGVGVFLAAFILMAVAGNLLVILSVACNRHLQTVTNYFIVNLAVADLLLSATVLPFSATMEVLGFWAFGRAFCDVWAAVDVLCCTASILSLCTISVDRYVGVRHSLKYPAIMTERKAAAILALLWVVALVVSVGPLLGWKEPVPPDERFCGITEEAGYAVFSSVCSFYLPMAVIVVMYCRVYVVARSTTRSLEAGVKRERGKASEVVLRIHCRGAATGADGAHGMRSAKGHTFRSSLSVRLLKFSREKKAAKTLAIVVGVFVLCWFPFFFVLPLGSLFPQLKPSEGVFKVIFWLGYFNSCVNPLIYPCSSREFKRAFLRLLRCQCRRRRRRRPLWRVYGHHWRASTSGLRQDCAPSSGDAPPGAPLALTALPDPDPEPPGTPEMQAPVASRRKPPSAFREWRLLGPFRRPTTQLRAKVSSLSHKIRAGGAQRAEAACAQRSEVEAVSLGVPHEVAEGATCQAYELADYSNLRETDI

[10] = biological target: G-protein coupled receptor 35 (Homo sapiens, UniProt Q9HC97); assay: Agonist activity at GPR35 (unknown origin) expressed in human U2OS cells coexpressing beta-arrestin by GFP reporter gene assay; type: cell-based
[11] = Kinetic solubility of the compound in PBS buffer at 250 uM after 18 hrs at pH 7.4; type: physicochemical; conditions: read-out: Kinetic_solubility
[12] = test system: Mycobacterium tuberculosis; assay: Antibacterial activity against Mycobacterium tuberculosis H37Rv assessed as growth inhibition; type: functional
[13] = Drug uptake in C57BL/6J mouse brain at 30 mg/kg, ip after 1 hr by LC-MS/MS analysis; type: ADME, organism-based; design: dose 30 mg/kg, route intraperitoneal; conditions: read-out: Drug uptake
[14] = Effective permeability of the compound at 50 uM after 30 mins at donor pH 6.2 and acceptor pH 7.4 by PAMPA; type: ADME; conditions: pH 6.2, 0.5 h
Plasma [15] = assay: Metabolic stability in human plasma assessed as compound remaining at 1 uM after 3 hrs by LC-MS/MS analysis; type: ADME, cell-free
Plasma [16] = assay: Plasma protein binding in mouse at 10 uM after 4 hrs by LC-MS/MS analysis; type: ADME, cell-free
[17] = Kinetic solubility of the compound in pION buffer at 250 uM after 18 hrs at pH 7.4; type: physicochemical; conditions: read-out: Kinetic_solubility
[18] = Hepatotoxicity in human Fa2N-4 cells after 24 hrs by luminescence assay; type: toxicity, cell-based; conditions: fa2n-4, 24 h, read-out: LC50 (the source's name)
[19] = biological target: T3, Alpha-1B adrenergic receptor (Homo sapiens) (UniProt P35368); assay: Binding affinity to adrenergic alpha1B receptor (unknown origin) at 10 uM relative to control
T3 sequence (whole entry): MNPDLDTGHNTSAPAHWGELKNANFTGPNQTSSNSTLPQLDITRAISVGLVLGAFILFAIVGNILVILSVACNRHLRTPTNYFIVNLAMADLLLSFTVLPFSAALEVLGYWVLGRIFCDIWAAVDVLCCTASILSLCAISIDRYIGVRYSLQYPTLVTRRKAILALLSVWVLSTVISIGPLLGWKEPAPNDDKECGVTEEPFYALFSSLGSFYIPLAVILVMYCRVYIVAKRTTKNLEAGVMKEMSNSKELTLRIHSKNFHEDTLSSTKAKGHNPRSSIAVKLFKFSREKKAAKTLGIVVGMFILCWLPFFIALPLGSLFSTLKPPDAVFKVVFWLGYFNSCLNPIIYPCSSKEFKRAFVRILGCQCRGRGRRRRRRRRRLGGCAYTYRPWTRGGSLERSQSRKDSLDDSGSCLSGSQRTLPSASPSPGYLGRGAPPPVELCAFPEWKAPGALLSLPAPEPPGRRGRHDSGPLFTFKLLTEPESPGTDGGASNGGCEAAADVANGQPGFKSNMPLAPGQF

Neurotensin receptor type 1, sequence (P30989 whole entry): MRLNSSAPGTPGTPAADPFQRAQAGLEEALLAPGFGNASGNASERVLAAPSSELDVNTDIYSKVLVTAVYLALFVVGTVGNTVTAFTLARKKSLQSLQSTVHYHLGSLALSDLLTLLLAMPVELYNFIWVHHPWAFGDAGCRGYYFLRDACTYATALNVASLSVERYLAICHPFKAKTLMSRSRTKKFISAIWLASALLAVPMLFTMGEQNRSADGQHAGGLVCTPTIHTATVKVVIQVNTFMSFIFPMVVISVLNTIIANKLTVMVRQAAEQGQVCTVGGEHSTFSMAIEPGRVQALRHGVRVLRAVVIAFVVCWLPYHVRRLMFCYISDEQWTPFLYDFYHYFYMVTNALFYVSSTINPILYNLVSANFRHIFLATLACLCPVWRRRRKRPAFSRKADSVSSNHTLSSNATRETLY
Mu-type opioid receptor, sequence (P35372 whole entry): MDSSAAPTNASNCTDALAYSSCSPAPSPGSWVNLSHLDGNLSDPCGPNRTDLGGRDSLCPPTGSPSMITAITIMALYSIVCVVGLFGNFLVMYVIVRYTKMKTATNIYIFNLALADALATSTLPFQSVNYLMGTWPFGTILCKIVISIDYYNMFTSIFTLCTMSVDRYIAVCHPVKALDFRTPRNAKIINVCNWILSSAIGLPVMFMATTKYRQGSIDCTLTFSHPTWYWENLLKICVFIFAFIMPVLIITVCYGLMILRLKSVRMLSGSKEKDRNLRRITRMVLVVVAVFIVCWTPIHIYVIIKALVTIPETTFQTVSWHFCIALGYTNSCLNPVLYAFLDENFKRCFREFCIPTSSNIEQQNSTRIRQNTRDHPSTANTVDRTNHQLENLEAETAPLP
G-protein coupled receptor 35, sequence (Q9HC97 whole entry): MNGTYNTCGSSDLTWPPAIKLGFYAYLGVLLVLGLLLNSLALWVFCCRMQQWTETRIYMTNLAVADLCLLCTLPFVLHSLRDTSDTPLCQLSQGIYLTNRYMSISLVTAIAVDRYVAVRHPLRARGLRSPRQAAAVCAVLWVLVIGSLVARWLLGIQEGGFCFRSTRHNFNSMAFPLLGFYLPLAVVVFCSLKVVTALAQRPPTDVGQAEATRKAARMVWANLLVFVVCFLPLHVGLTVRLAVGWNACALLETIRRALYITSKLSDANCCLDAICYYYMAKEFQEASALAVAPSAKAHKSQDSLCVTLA

COc1cc2nc(C3CC3)nc(N3CCN(c4ccccc4OC)CC3)c2cc1OC
Ki (Mu-type opioid receptor): 1540 nM
Stability (Liver microsomes): 1.4%
EC50 [1]: > 80 µM
GI (Hepatitis C virus): 3.16 µM
Peff [2]: 2090 ×10⁻⁶ cm/s
Stability (Liver): 0.2%
Peff [3]: 1160 ×10⁻⁶ cm/s
Activity [4]: 63%
Stability (Plasma [5]): 99.6%
PPB (Plasma [6]): 99.7%
PPB (Plasma [7]): 99.2%
CLH (Mus musculus): 81 mL/min/kg
concentration at 1 h [8]: 924 ng/mL
Activity [9]: 63%
EC50 [10]: > 40 µM
solubility kinetic at 18 h, 250 µM [11]: 1.1 µM (≈ 0.463 µg/mL)
GI [12]: 3.9 µM
concentration at 1 h [13]: 1510 ng/mL
Peff [14]: 2140 ×10⁻⁶ cm/s
Stability (Plasma [15]): 100%
PPB (Plasma [16]): 98.9%
solubility kinetic at 18 h, 250 µM [17]: 1.2 µM (≈ 0.505 µg/mL)
CC50 [18]: 29.6 µM
Activity [19]: 63%
